{"source": "patent US20120269725A1", "about": "“TARGETED RADIOLABELED COMPOUNDS AND THEIR USE FOR THE TREATMENT AND DIAGNOSIS OF CANCER” (priority 2009, published 2012)", "key": {"[1]": {"tested_on": "IP OVCAR-3 tumors", "assay": "Pilot therapy of IP OVCAR-3 tumors in athymic mice", "format": "in vivo", "description": "In pilot therapy experiments, the effects of unmodified ^125IUdR on the growth of IP OVCAR-3 tumors were compared to the therapeutic effects of the 6b diastereomeric mixture and 7b diastereomeric mixture. The tumor model used in this study, OVCAR-3 cell line, was established from the malignant ascites of a patient with progressive adenocarcinoma of the ovary after many types of chemotherapy including cyclophosphamide, adriamycin, and cisplatin. OVCAR-3 is resistant in vitro to clinically relevant concentrations of adriamycin, melphalan, and cisplatin (Hamilton T C, Young R C, Louie K G, Behrens B C, McKoy W M, Grotzinger K R, Ozols R F. Characterization of a xenograft model of human ovarian carcinoma which produces ascites and intraabdominal carcinomatosis in mice. Cancer Res. 1984; 44:5286-90.). In immunodeficient mice, IP injected OVCAR-3 cells produce malignant ascites, peritoneal carcinomatosis, and serosal and visceral seeding that, if left untreated, leads to death from respiratory compromise, hemorrhage from invasion of intra-abdominal blood vessels, and bowel obstruction. Substantial literature data (nearly 100 publications) confirm that this tumor model has pathogenesis and metastatic properties similar to those of human ovarian cancer.\nMice received IP implants of approximately 2.4×10^8 OVCAR-3 cells/mouse isolated from fresh OVCAR-3 mouse ascites. Cell viability was measured before and after injection, and was ≧90%. Four days after tumor cells were implanted, the mice received SQ transponders and were randomized via a lottery into four groups: NT—untreated controls that received IP injection of PBS; 7b group—receiving IP doses of the 7b diastereomeric mixture in PBS (average 0.4 mCi/mouse (14.8 MBq)); 6b group—receiving IP doses of the 6b diastereomeric mixture in PBS (average dose 0.36 mCi/mouse (13.3 MBq)); and ^125IUdR group—receiving IP doses of ^125IUdR (average 0.43 mCi/mouse (15.9 MBq)) in PBS. Mice were monitored three times per week.\nMice in the 6b group received 0.22 mCi (8.1 MBq) 6b diastereomeric mixture on day 27; and on day 28 mice in ^125IUdR group were treated with additional 0.2 mCi (7.4 MBq) ^125IUdR. Slight differences in the dosing schedule and the administered doses are because of the required large quantities of the compounds. For these experiments, ˜20 mCi of no-carrier added and radiochemically pure compounds were required. Each agent was purified on the analytical reversed phase HPLC column. The use of preparative columns in this case is impractical because the products are recovered in large volumes of acetonitrile-containing solvent that must be evaporated to dryness before the use in mice.\nOverall, mice in the 7b group were treated with an average of 0.58 mCi (21.5 MBq) 7b diastereomeric mixture; mice in the 6b group were treated with an average of 0.58 mCi (21.5 MBq) 6b diastereomeric mixture, and mice in the ^125IUdR group were treated with an average of 0.63 mCi (23.3 MBq) ^125IUdR.\nThe therapy was terminated 7 weeks after the first dosing. Mice were sacrificed for the biodistribution study. Blood and solid tumor were taken for the evaluation of their radioactive content. The peritoneal cavity was lavaged with 2-mL aliquots of PBS, and PBS wash and ascites were collected. One mL of the ascites suspension with cancer cells was taken for gamma counting. The rest of the abdominal fluid was centrifuged and 0.5 mL of the supernatant was reserved for gamma counting. The weight of the cell pellet and the supernatant were determined.\nTwo weeks after the first dose of radiolabeled compounds, the whole body radioactivity was measured to determine to what extent the additional doses of the compounds may increase the radiation burden and therefore may be detrimental to the animal health (FIG. 11B). The absolute amounts were low and ranged from […] for the 6b group to […] in the 7b group. […]"}, "[2]": {"tested_on": "subcutaneous LS174T tumors (human colorectal adenocarcinoma)", "assay": "Biodistribution, clearance and planar imaging in athymic mice bearing subcutaneous LS174T xenografts", "format": "in vivo, athymic NCr-nu/nu mice", "conditions": "for tumor uptake and retention, times higher than parent drug ^131IUdR: co-injected ^131IUdR", "description": "The in vivo properties and pharmacology of several compounds of the present invention were initially tested in athymic mice bearing subcutaneous LS174T tumors (human colorectal adenocarcinoma), which have several desirable properties such as rapid growth when implanted subcutaneously (SQ), good vascularization and the availability of considerable historical data for the parent compound IUdR. The clearance rates from blood, tumor, and associated organs were analyzed to determine the structure-pharmacokinetics relationship. The first compounds studied were 6b-fast and 6b-slow. Four-to-six-weeks old female athymic NCr-nu/nu mice (NCI-Frederic, Md., USA) were allowed to acclimate in Applicants' facility after delivery for no less than 5 days. All protocols involving animals were approved by the University of Nebraska Institutional Animal Care and Use Committee. Mice were housed in microisolator cages with free access to sterilized standard rodent diet and water. LS174T cells in 0.1 mL of serum-free medium were implanted SQ at 5×10^6 cells/mouse. One week later identification transponders were implanted, also SQ. Body weights and tumor sizes were monitored twice weekly, and approximately 10 days after the cell implant, mice were randomized for biodistribution studies.\nEach of the two isomers, 6b-fast and 6b-slow, was tested independently in separate groups of mice. The comparison to the parent compound, IUdR, was made by co-injecting ^131IUdR with a particular ^125I-labeled diastereomer. Compounds were administered intravenously (IV) via a tail vein.\nBiodistribution was conducted at 1 h, 4 h, 24 and 48 h after the administration of radiolabeled compounds (n=6 per time point). The injection doses contained approximately 1 μCi (37 kBq) ^131IUdR and 5 μCi (185 kBq) ^125I-labeled 6b-fast or 6b-slow dissolved in 0.2 mL phosphate buffered saline containing 0.1% bovine serum albumin, pH 7.2 (PBS). All syringes were weighted after loading with the compound solution and immediately after the injection to determine the weight of the injected dose. Triplicate standards of the injected dose were prepared in PBS and counted in a gamma counter just before the beginning of the experiment. The radioactive content of these standards was also determined alongside all tissues after the necropsy to correct the tissue uptake for the decay of the radioisotope. Blood, liver, spleen, heart, lungs, kidneys, brain, tumor and tail were collected during necropsy. Tissues were rinsed in ice-cold saline, patted dry and weighed. The tail was collected to validate the quality of the IV injections.\nFIG. 7 presents whole body images for a typical time course distribution (24 h, 48 h, and 72 h) of 6b administered as a diastereomeric mixture in LS174T-bearing athymic mice. The images were acquired 1, 2, and 3 days after the administration of the compound. […] It is also apparent that based on pharmacokinetics, the use of these compounds can be tailored to a specific malignancy and its anatomical location."}, "[3]": {"tested_on": "U-87 human glioblastoma cells", "assay": "Clonogenic assay in U-87 cells", "format": "cell-based", "conditions": "24 h treatment at 0.5 to 5 μCi/mL; 100 and 500 cells/flask; monitored 7 weeks", "description": "U-87 cells were plated for 24 h before treatment and then treated for 24 h with concentrations of 6b fast and 6b slow ranging from 0.5 μCi/mL to 5 μCi/mL (18.5 to 185 kBq/mL). Cells were harvested, washed, and their numbers counted using a Cellometer® cell counter. Cells were diluted in fresh medium. Cells from each concentration of 6b fast and 6b slow were plated in three T25 flasks at two densities, 100 cells/flask and 500 cells/flask. Control cells were sham-treated with PBS and processed in a manner identical to cells treated with 6b. Cells were periodically examined and fresh medium was added every 5-7 days. Three weeks after plating, media was removed from the control flasks, cells were washed with 5 mL ice-cold PBS, followed by 5 mL PBS/methanol (1:1; v/v), and fixed in 5 mL methanol for 10 minutes. The methanol was discarded and flasks were left open to dry for a few hours. Crystal violet (5 mL; 0.25% in 1:1 PBS/methanol) was added to each flask to stain the cells. After approximately 10 min, the dye was removed and flasks were rinsed first with tap water followed by distilled water and were left to dry. […] This finding indicates the extraordinarily effective killing of U-87 cells by 6b."}}}
{"smiles": "O=c1[nH]c(=O)n([C@H]2C[C@H](O)[C@@H](COP3(=O)OCc4ccccc4O3)O2)cc1[125I]", "note": "(some centres unmarked) [Compound 6b, 5-[^125I]-Iodo-5′-O-cycloSaligenyl-2′-deoxyuridine Monophosphate]", "values": [{"measurement": "whole body retention, median", "setting": "[1]; after 14 days", "result": 1.89, "unit": "% ID"}, {"measurement": "whole body retention", "setting": "[1]; after 14 days, value with spread in brackets", "result": "1.87 (0.16) % ID"}, {"measurement": "reduction in solid tumor deposits as compared to ^125IUdR", "setting": "[1]; diastereomeric mixtures IP, total average 0.58 mCi, 7 weeks after first dose", "result": "~50", "unit": "%"}, {"measurement": "tumor retention compared to ^125IUdR", "setting": "[1]; necropsy 4 weeks after the boost dose", "result": "significantly higher compared to ^125IUdR"}, {"measurement": "tumor uptake and retention, times higher than parent drug ^131IUdR", "setting": "[2]; 24 hours after IV administration", "result": "~14", "unit": "×"}, {"measurement": "tumor uptake and retention, times higher than parent drug ^131IUdR", "setting": "[2]; 48 hours after IV administration", "result": "~7", "unit": "×"}, {"measurement": "clearance of normal organs versus tumor (whole body images)", "setting": "[2]; diastereomeric mixture, images 24 h, 48 h, 72 h after IV administration", "result": "normal organs such as liver clear the compound at a much faster rate than the tumor"}, {"measurement": "colony formation", "setting": "[3]", "result": "colonies were not formed"}]}
